Like-named read-outs stand apart in the source and are kept apart here.
Assays:
[1] = system: L1210/0 murine leukemia cells; assay: Cytotoxic effect on L1210/0 cells; format: cell-based; conditions: Tables 5 and 7, L1210/0 cells
[2] = system: FM3A/0 murine mammary carcinoma cells; assay: Cytotoxic effect on FM3A/0 cells; format: cell-based; parameters: unit not given beside the values; conditions: Tables 5 and 7, FM3A/0 cells
human Molt4/C8 cells = assay: Cytotoxic effect on Molt4/C8 cells; format: cell-based; conditions: Tables 5 and 7, Molt4/C8 cells
human CEM T4 lymphocytes = assay: Cytotoxic effect on CEM T4 lymphocytes; format: cell-based; parameters: unit not given beside the values; conditions: Tables 5 and 7, CEM cells
HeLa cells = assay: Cytotoxic effect on HeLa cells; format: cell-based; parameters: unit not given beside the values; conditions: Tables 5 and 7, HeLa cells
Moloney sarcoma virus = assay: Inhibition of transformation of mouse embryo C3H/3T3 cells induced by Moloney sarcoma virus; format: cell-based; parameters: MIC (minimum inhibitory concentration): unit not given here; conditions: for MIC (minimum inhibitory concentration): C3H/3T3 cells, a second bound is given in brackets for some compounds
Source text: 2.2. Inhibitory Effect on the Transformation of Mouse Embryo C3H/3T3 Cells Induced by Moloney Sarcoma Virus (Model of Infection with HIV)

HIV-1 = assay: Anti-HIV-1 effect in CEM cells; format: cell-based
Description: (§1) The evaluation test is described in Roy, B.; Chambert, S.; Lepoivre M.; Aubertin, A.-M.; Balzarini, J.; Décout, J.-L., Deoxyribonucleoside 2′- or 3′-mixed disulfides: prodrugs to target ribonucleotide reductase and/or to inhibit HIV reverse transcription. J. Med. Chem. 2003, 46, 2565-2568.
(§2) The toxicity and the antiviral activities were measured at different concentrations, and their evolution as a function of the concentration makes it possible to evaluate: • the concentration at which 50% of the cells are dead in the absence of virus (CC 50) for each of the test compounds, from the change in absorbance at 540 nm of formazan as a function of the concentration of test compound, • the concentration of compound that leads to a 50% reduction in the activity of viral reverse transcriptase (EC 50). This concentration is determined from the curve representing the change in the percentage of “remaining reverse transcriptase” activity (defined as being the ratio of the activity of the reverse transcriptase in the presence of the test compound to that of the untreated cells) as a function of the concentration of test compound.
(§3) EC50: concentration required to afford 50% protection to the CEM cells against the cytopathogenicity of HIV;

HIV-2 [3] = assay: Anti-HIV-2 effect in CEM cells; format: cell-based; conditions: CEM cells, read-out: EC50 HIV-2
Description: as §1, §2, §3

HIV-2 [4] = assay: Anti-HIV-2 effect in CEM/TK− cells; format: cell-based; conditions: Human immunodeficiency virus 2, CEM-TK(-); Third Series; CEM cells having no thymidine kinase activity
Description: as §1, §2, §3
• Effect in CEM not expressing thymidine kinase activity (CEM/TK^−, cells having no thymidine kinase activity).

human CEM cells = assay: Cytotoxicity (MTT) on CEM cells; format: cell-based; conditions: CCRF-CEM; for CC50: read-out: CC50 CEM; for EC50: Tables 4 and 6, CEM cells, some values 'then plateau'
Description: (§4) The cytotoxic effect of a compound is studied on human CEM cells and MCF-7 mammary carcinoma cells that are or are not resistant to gemcitabine, which is an anticancer nucleoside used in chemotherapy.
(§5) The cytotoxicity (CC50) was estimated by measuring the reduction of 3-(4,5-dimethylthiazol-2-yl)-2,5-diphenyltetrazolium bromide (MTT), which is converted into insoluble violet formazan. To do this, 100 000 cells (human CEM-SS or MCF-7 lines) are inoculated per well in 100 μl of culture medium, in 96-well microtitration plates. After 24 hours, the test products are added in 100 μl and incubation is continued for 48 to 72 hours. MIT is then added in a proportion of 20 μl of a solution at 5 mg/ml in PBS. Three hours later, 100 μl of a DMF/acetic acid/HCl/SDS (sodium dodecyl sulfate) solution are added. After 3 hours at 37° C., the absorbance of the formazan is measured at 590 nm and compared with that of the untreated control.

[5] = system: MCF-7 mammary carcinoma cells; assay: Cytotoxicity (MTT) on MCF-7 cells; format: cell-based, human; conditions: for CC50: Homo sapiens, MCF7, read-out: CC50 MCF-7
Description: as §4, §5

[6] = transformation of C3H/3T3 cells induced by Moloney sarcoma virus, read-out: EC50 (effective concentration 50%)
[7] = Human immunodeficiency virus 1, CCRF-CEM, Third Series, read-out: EC50 HIV-1
[8] = Human immunodeficiency virus 2, CCRF-CEM, Third Series

Cc1cn([C@H]2C[C@H](SSc3ccccc3[N+](=O)[O-])[C@@H](CO)O2)c(=O)[nH]c1=O [Compound 26, 3′-deoxythymidin-3′-yl 2-nitrophenyl disulfide]
cytotoxic effect, L1210/0 [1]: 33 ± 7
cytotoxic effect, FM3A/0 [2]: 220 ± 19
cytotoxic effect, Molt4/C8 (human Molt4/C8 cells): 31 ± 5
cytotoxic effect, CEM (human CEM T4 lymphocytes): 32 ± 1
cytotoxic effect, HeLa (HeLa cells): 15 ± 0
MIC (minimum inhibitory concentration) (Moloney sarcoma virus): 20
EC50 (Moloney sarcoma virus; [6]): 1.1 ± 0.8 µM

CSC1=C[C@@H](CO)O[C@H]1n1ccc(=O)[nH]c1=O [Compound 31, 2′,3′-didehydro-2′,3′-dideoxy-2′-methylthiouridine]
EC50 (HIV-1; [7]): ≥ 10 µM
EC50 (HIV-2 [3]; [8]): 6.5 ± 0.7 µM
EC50 (HIV-2 [4]): > 10 µM

Cc1cn([C@@H]2O[C@H](CO)C=C2[S+]([O-])CC[Si](C)(C)C)c(=O)[nH]c1=O (stereo partly shown) [Compound 6, 2′,3′-Didehydro-2′,3′-dideoxy-2′-(2-trimethylsilyl)ethylthiothymidine sulfoxide]
CC50 (human CEM cells; Homo sapiens): > 200 µM

Cc1cn([C@@H]2O[C@H](CO)C=C2SSc2ccccc2[N+](=O)[O-])c(=O)[nH]c1=O [Compound 11]
EC50 (human CEM cells; Homo sapiens): > 200 µM

C[C@H](Cn1cnc2c(N)ncnc21)OCP(=O)(O)O [Tenofovir, reference compound]
EC50 (HIV-1; First and Second Series, first table, read-out: EC50 HIV-1): 5.5 µM
EC50 (HIV-2 [3]; First and Second Series, first table): 2.6 µM

Cc1cn([C@H]2C=C(SCC[Si](C)(C)C)[C@@H](CO)O2)c(=O)[nH]c1=O [Compound 4, 2′,3′-didehydro-2′,3′-dideoxy-3′-(2-trimethylsilyl)ethylthiothymidine]
CC50 (human CEM cells; Homo sapiens): 82 µM
cytotoxicity at 200 μM, MCF-7 [5]: 33%

CC(C)CCSC1=C[C@@H](CO)O[C@H]1n1ccc(=O)[nH]c1=O [Compound 2]
CC50 (human CEM cells; Table 3, MTT, human CEM cells): > 200 µM
CC50 [5]: > 200 µM

(R)-PMEA [reference compound]
MIC (minimum inhibitory concentration) (Moloney sarcoma virus): >10
EC50 (Moloney sarcoma virus; [6]): 0.23 ± 0.03 µM

C[Si](C)(C)CCSC1=C[C@@H](CO)O[C@H]1n1ccc(N)nc1=O [Compound 5, 2′,3′-Didehydro-2′,3′-dideoxy-2′-(2-trimethylsilyl)ethylthiocytidine]
CC50 (human CEM cells; Homo sapiens): 217 µM
cytotoxicity at 200 μM, MCF-7 [5]: 41%

Nc1ncnc2c1ncn2CCOCP(=O)(O)O [PMEA, reference compound]
EC50 (Moloney sarcoma virus; [6]): 0.53 ± 0.13 µM

Cc1cn([C@H]2C[C@H](SSCCCCCCO)[C@@H](CO)O2)c(=O)[nH]c1=O [Compound 30, 3′-deoxythymidin-3′-yl 6-hydroxyhexyl disulfide]
EC50 (HIV-1; [7]): 3 µM
EC50 (HIV-2 [3]; [8]): 4.5 ± 2.1 µM
EC50 (HIV-2 [4]): > 10 µM

Cc1cn([C@H]2C[C@H](SSc3ccc([N+](=O)[O-])cc3)[C@@H](CO)O2)c(=O)[nH]c1=O [Compound 25, 3′-deoxythymidin-3′-yl 4-nitrophenyl disulfide]
cytotoxic effect, L1210/0 [1]: 32 ± 3
cytotoxic effect, FM3A/0 [2]: 148 ± 16
cytotoxic effect, Molt4/C8 (human Molt4/C8 cells): 29 ± 2
cytotoxic effect, CEM (human CEM T4 lymphocytes): 34 ± 0
cytotoxic effect, HeLa (HeLa cells): 28 ± 12
MIC (minimum inhibitory concentration) (Moloney sarcoma virus): 20
EC50 (Moloney sarcoma virus; [6]): 0.89 ± 0.36 µM

Cc1cn([C@@H]2O[C@H](CO)C=C2SSC(Cl)(Cl)Cl)c(=O)[nH]c1=O [Compound 12, 2′,3′-didehydro-2′,3′-dideoxythymidin-2′-yl trichloromethyl disulfide]
EC50 (human CEM cells; Homo sapiens): 46 µM

Cc1cn([C@@H]2O[C@H](CO)C=C2S(=O)(=O)CC[Si](C)(C)C)c(=O)[nH]c1=O [Compound 7, 2′,3′-Didehydro-2′,3′-dideoxy-2′-(2-trimethylsilyl)ethylthiothymidine sulfone]
CC50 (human CEM cells; Homo sapiens): 63 µM
CC50 [5]: 120 µM

CSS[C@H]1C[C@H](n2ccc(N)nc2=O)O[C@@H]1CO [Compound 19, 2′,3′-Dideoxycytidin-3′-yl methyl disulfide]
EC50 (human CEM cells; Homo sapiens): > 200 µM
EC50 (HIV-1; [7]): 20 ± 7 µM
EC50 (HIV-1; Human immunodeficiency virus 1, CCRF-CEM, read-out: EC50 HIV-1, First and Second Series, first table): 3.3 ± 2.3 µM
EC50 (HIV-2 [3]; Human immunodeficiency virus 2, CCRF-CEM, First and Second Series, first table): 10.5 ± 9.3 µM
EC50 (HIV-2 [3]; [8]): 20 ± 7 µM
EC50 (HIV-2 [4]): 45 ± 21 µM
EC50 (Moloney sarcoma virus; C3H/3T3, read-out: EC50 (effective concentration 50%)): 48 ± 2 µM
MIC (minimum inhibitory concentration) (Moloney sarcoma virus): >100

Cc1cn(C2OC(CO)C=C2SSc2ccccc2[N+](=O)[O-])c(=O)[nH]c1=O (stereo not shown) [Compound 15, 2′,3′-didehydro-2′,3′-dideoxythymidin-2′-yl 2-nitrophenyl disulfide]
cytotoxic effect, L1210/0 [1]: 42 ± 3
cytotoxic effect, FM3A/0 [2]: 175 ± 30
cytotoxic effect, Molt4/C8 (human Molt4/C8 cells): 30 ± 15
cytotoxic effect, CEM (human CEM T4 lymphocytes): 28 ± 0
cytotoxic effect, HeLa (HeLa cells): 31 ± 1
MIC (minimum inhibitory concentration) (Moloney sarcoma virus): 100
EC50 (Moloney sarcoma virus; [6]): 8.3 ± 0.4 µM

O=c1ccn([C@@H]2O[C@H](CO)C=C2SSc2ccccc2[N+](=O)[O-])c(=O)[nH]1 [Compound 17, 2′,3′-didehydro-2′,3′-dideoxyuridin-2′-yl 2-nitrophenyl disulfide]
cytotoxic effect, L1210/0 [1]: 43 ± 5
cytotoxic effect, FM3A/0 [2]: 206 ± 25
cytotoxic effect, Molt4/C8 (human Molt4/C8 cells): 42 ± 1
cytotoxic effect, CEM (human CEM T4 lymphocytes): 40 ± 4
cytotoxic effect, HeLa (HeLa cells): 29 ± 9
EC50 (HIV-1; [7]): 6.5 ± 4.9 µM
EC50 (HIV-2 [3]; [8]): ≥ 10 µM
EC50 (HIV-2 [4]): > 10 µM

Cc1cn(C2OC(CO)C=C2SSc2ccc([N+](=O)[O-])cc2)c(=O)[nH]c1=O (stereo not shown) [Compound 14, 2′,3′-didehydro-2′,3′-dideoxythymidin-2′-yl 4-nitrophenyl disulfide]
cytotoxic effect, L1210/0 [1]: 31 ± 3
cytotoxic effect, FM3A/0 [2]: 39 ± 3
cytotoxic effect, Molt4/C8 (human Molt4/C8 cells): 12 ± 5
cytotoxic effect, CEM (human CEM T4 lymphocytes): 31 ± 1
cytotoxic effect, HeLa (HeLa cells): 7.4 ± 1.6
MIC (minimum inhibitory concentration) (Moloney sarcoma virus): 100
EC50 (Moloney sarcoma virus; [6]): 15 µM

CSS[C@H]1C[C@H](n2cc(Br)c(=O)[nH]c2=O)O[C@@H]1CO [Compound 23, 5-Bromo-2′,3′-dideoxyuridin-3′-yl methyl disulfide]
EC50 (human CEM cells; Homo sapiens): 66 µM

O=c1ccn([C@@H]2O[C@H](CO)C=C2SSc2ccc([N+](=O)[O-])cc2)c(=O)[nH]1 [Compound 16, 2′,3′-didehydro-2′,3′-dideoxyuridin-2′-yl 4-nitrophenyl disulfide]
cytotoxic effect, L1210/0 [1]: 42 ± 4
cytotoxic effect, FM3A/0 [2]: 45 ± 2
cytotoxic effect, Molt4/C8 (human Molt4/C8 cells): 28 ± 10
cytotoxic effect, CEM (human CEM T4 lymphocytes): 41 ± 1
cytotoxic effect, HeLa (HeLa cells): 16 ± 2
EC50 (HIV-1; [7]): 37.5 ± 17.7 µM
EC50 (HIV-2 [3]; [8]): 9.5 ± 7.8 µM
EC50 (HIV-2 [4]): 32.5 ± 25 µM

C[Si](C)(C)CC[S+]([O-])C1=C[C@@H](CO)O[C@H]1n1ccc(=O)[nH]c1=O (stereo partly shown) [Compound 8, 2′,3′-Didehydro-2′,3′-dideoxy-2′-(2-trimethylsilyl)ethylthiouridine sulfoxide]
CC50 (human CEM cells; Homo sapiens): > 200 µM
